Assays:
NK-3 receptor = molecular target: T1, NK-3 receptor (Cavia porcellus, UniProt P30098); test: Antagonism of iodinated tachykinin (125I-eledoisin) binding to NK3 receptor in guinea pig cerebral cortex
T1 construct: freshly collected guinea pig cerebral cortex; from tissue; host or cells: guinea pig cerebral cortex membranes
T1 sequence (P30098 1-440): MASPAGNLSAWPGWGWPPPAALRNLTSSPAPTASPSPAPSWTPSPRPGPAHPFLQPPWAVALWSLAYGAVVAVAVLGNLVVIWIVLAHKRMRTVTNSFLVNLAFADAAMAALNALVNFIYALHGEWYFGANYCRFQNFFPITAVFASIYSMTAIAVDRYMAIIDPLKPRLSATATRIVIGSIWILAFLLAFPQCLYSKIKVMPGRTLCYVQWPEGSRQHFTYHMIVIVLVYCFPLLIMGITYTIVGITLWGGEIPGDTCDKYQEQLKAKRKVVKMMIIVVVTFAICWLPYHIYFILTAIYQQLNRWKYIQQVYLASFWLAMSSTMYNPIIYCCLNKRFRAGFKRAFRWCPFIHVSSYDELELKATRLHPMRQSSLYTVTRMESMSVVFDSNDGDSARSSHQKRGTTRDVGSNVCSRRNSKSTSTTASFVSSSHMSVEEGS
Protocol: (§1) ANTAGONISM OF IODINATED TACHYKININ BINDING TO NK1 AND NK2 RECEPTORS BY PUTATIVE ANTAGONISTS
The NK1 receptor affinity of proposed tachykinin antagonists was evaluated in guinea pig lungs (Keystone Biologicals, Cleveland, Ohio), affinity for the NK2 receptor evaluated in HSKR-1 cells (which are mouse 3T3 fibroblasts expressing the human jejunal NK2 receptor) and NK-3 receptor affinity was evaluated in freshly collected guinea pig cerebral cortex. Tissues or cells were homogenized with a Polytron in 15 volumes of 50 mM Tris-HCl buffer (pH 7.4, 4° C.) and centrifuged. The pellet was resuspended in Tris-HCl buffer and was centrifuged; the pellet was washed twice by resuspension. The final pellet was resuspended at a concentration of 40 mg/ml for tissues (guinea pig lung and cerebral cortex) and 20 mg/ml for cells in incubation buffer and remained at room temperature for at least 15 min prior to use. […] Filter bound radioactivity was quantitated in a gamma counter. […] Specific binding was calculated by subtracting nonspecific binding from total binding. Competition of iodinated SP, NKA, or eledoisin binding by test compounds or standards was expressed as a percentage of this maximum competition. […]

NK1 receptor = NK1 receptor (Cavia porcellus, UniProt P30547); test: Antagonism of iodinated tachykinin (125I-substance P) binding to NK1 receptor in guinea pig lungs; parameters: tissue Keystone Biologicals, Cleveland, Ohio; host or cells: guinea pig lung membranes
Chain of NK1 receptor (P30547 whole entry): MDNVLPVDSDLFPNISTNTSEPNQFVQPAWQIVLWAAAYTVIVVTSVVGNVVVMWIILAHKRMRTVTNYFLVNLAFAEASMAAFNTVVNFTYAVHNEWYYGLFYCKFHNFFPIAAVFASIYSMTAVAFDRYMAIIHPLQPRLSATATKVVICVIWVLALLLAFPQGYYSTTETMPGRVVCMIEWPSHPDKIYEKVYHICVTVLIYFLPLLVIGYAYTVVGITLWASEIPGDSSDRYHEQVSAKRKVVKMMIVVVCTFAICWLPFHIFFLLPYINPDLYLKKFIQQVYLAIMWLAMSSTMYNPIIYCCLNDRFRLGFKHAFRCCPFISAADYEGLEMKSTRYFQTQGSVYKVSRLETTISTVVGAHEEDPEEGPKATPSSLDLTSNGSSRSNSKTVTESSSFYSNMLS
Protocol: as §1
The NK1 receptor affinity of proposed tachykinin antagonists was evaluated in guinea pig lungs (Keystone Biologicals, Cleveland, Ohio), affinity for the NK2 receptor evaluated in HSKR-1 cells (which are mouse 3T3 fibroblasts expressing the human jejunal NK2 receptor) and NK-3 receptor affinity was evaluated in freshly collected guinea pig cerebral cortex. Tissues or cells were homogenized with a Polytron in 15 volumes of 50 mM Tris-HCl buffer (pH 7.4, 4° C.) and centrifuged. The pellet was resuspended in Tris-HCl buffer and was centrifuged; the pellet was washed twice by resuspension. The final pellet was resuspended at a concentration of 40 mg/ml for tissues (guinea pig lung and cerebral cortex) and 20 mg/ml for cells in incubation buffer and remained at room temperature for at least 15 min prior to use. Receptor binding was initiated by addition of 250 ul membrane preparation in duplicate to 0.1 nM of the following radioligands: ^125 I-Bolton Hunter Lys-3 labeled substance P; ^125 iodohistidyl-1-neurokinin A; and ^125 I-Bolton Hunter labeled Lys-4 eledoisin in a final volume of 500 ul of buffer containing 50 mM Tris-HCl (pH 7.4 at room temperature), 0.1% bovine serum albumin, 2 mM MnCl2, 40 ug/ml bacitracin, 4 µg/ml leupeptin and chymostatin, 1 μM thiorphan and various doses of the putative tachykinin antagonists. Incubations were performed at room temperature for 90 min (NK1 receptor assays) or 2 hr (NK2 and NK3 receptor assays); binding was terminated by addition of 50 mM Tris-HCl buffer (pH 7.4, 4° C.) and filtration under vacuum through GF/B filters presoaked with 0.1% polyethyleneimine (NK1 receptor assays) or 0.5% bovine serum albumin (NK2 and NK3 receptor assays). Filter bound radioactivity was quantitated in a gamma counter. Nonspecific binding was defined as binding in the presence of 1 μM substance P, neurokinin A, or eledoisin. Specific binding was calculated by subtracting nonspecific binding from total binding. Competition of iodinated SP, NKA, or eledoisin binding by test compounds or standards was expressed as a percentage of this maximum competition. IC50 values (concentration required to inhibit 50% of receptor binding) were generated for each of the test compounds by nonlinear regression using an iterative curve fitting program (GraphPAD Inplot, San Diego, Calif.).

COc1cc(C(=O)N2CCC(CCN3CCC(C(N)=O)(c4ccccc4)CC3)(c3ccc(Cl)c(Cl)c3)C2)cc(OC)c1OC (centres unmarked) [Example 3, 1-[2-[3-(3,4-dichloro-phenyl)-1-(3,4,5-trimethoxy-benzoyl)-pyrrolidin-3-yl]-ethyl]-4-phenyl-piperidine-4-carboxylic acid amide]
affinity for NK3 receptors (in words) (NK-3 receptor): high affinity | affinity for NK1 receptors (in words) (NK1 receptor): high affinity
